Patent publication US4588525A, “Prodrug compounds for dermal application” (Molecular Biosystems, Inc., priority 1984, dated 1986)

Columns and labels:
cellular enzymes = test: Conversion by cellular enzymes to active 6-aminonicotinamide (interpretation of Table A); type: cell-based, human
Source text: Such cleavages might be exploited to retain local activity but to eliminate systemic toxicity.

human lung fibroblasts = test: Inhibition of growth of human lung fibroblasts in culture; type: cell-based; conditions: for IC50: Homo sapiens, Fibroblast, growth inhibition 50%, usually 3-4 days, 10^4 cells/35 mm dish, Coulter counter, read-out: ID50 (the source's name)
Experimental: Drugs were evaluated by their ability to inhibit the growth of human lung fibroblasts in culture. Human lung fibroblasts were grown in Eagle's Minimal Essential Media (EMEM) which contained 10% fetal calf serum, 1X non-essential amino acids, and 250 units penicillin and 250 μg streptomycin/ml. Stock cultures of the cells were grown on 100 mm culture plates. For testing purposes, cells were removed from the stock plates with 3 mls trypsin/versene and after appropriate dilution in the culture medium were plated onto 35 mm dishes. Typically, cells were subcultured at 10^4 cells/35 mm dish in 1.5 mls of medium and allowed to attach for 24 hours before the addition of drugs. Triplicate plates were treated with drugs over a wide concentration range. In some cases, it was necessary to dissolve stock solutions of the drugs with 50% ethanol. In such cases, appropriate controls were included to assure that the ethanol had no adverse effects. In all cases, untreated triplicate control plates were employed in order to determine the cell population at the time of drug addition and at the time of experiment ccmpletion (usual 3-4 days). The number of cells on the test and control plates was determined by first removing the medium by aspiration followed by gentle washing with 1 ml phosphate buffered saline. Trypsin/versene (0.5 ml) was then added and the plates incubated at 37° C. for up to 15 minutes or until the cells became detached. One milliliter of EMEM which contained 1X non-essential amino acids was then added in order to neutralize the action of trypsin. The cells were then diluted into ISOTON II (Curtin Matheson Scientific, Houston, Tex.) and counted on a Coulter counter (Coulter Electronics, Hialeah, Fla.) according to the Coulter counter owner's manual.

cancer = conditions: use questionable due to the CNS side effects; cited from earlier work
[1] = in vivo; cited from earlier work
[2] = topical, unless accompanied by oral nicotinamide; cited from earlier work

| SMILES | IC50 (human lung fibroblasts) [µM] | further results |
| --- | --- | --- |
| NC(=O)c1ccc(NC(=O)CCC(=O)N2CCCCC2)nc1 [6-Aminonicotinamide-N^6-succinyl piperidate] |  | conversion by cellular enzymes to active 6-aminonicotinamide (cellular enzymes): readily converted; efficiency of conversion compared with the other alkyl or ester analogues (cellular enzymes): more efficient |
| CCCCCCC(=O)Nc1ccc(C(N)=O)cn1 [N^6 --heptanoyl-6-aminonicotinamide] | 20 |  |
| CCOC(=O)CCC(=O)Nc1ccc(C(N)=O)cn1 [6-Aminonicotinamide-N^6 --succinate ethyl ester] | 5 |  |
| NC(=O)c1ccc(N)nc1 [6-Aminonicotinamide, 6-aminonicotinamide] | 2 | anti-cancer activity (cancer): anti-cancer activity; effectiveness against psoriasis compared with methotrexate [1]: more effective against psoriasis than methotrexate; central nervous system toxicity (CNS) [2]: a central nervous system toxicity (CNS) may result |
| CCCCOC(=O)CCC(=O)Nc1ccc(C(N)=O)cn1 [6-Aminonicotinamide-N^6 --succinate butyl ester] | 20 |  |
| CCOC(=O)CCCCC(=O)Nc1ccc(C(N)=O)cn1 [6-Aminonicotinamide-N^6 --apidic acid ethyl ester] | 30 |  |
| NC(=O)c1ccc(NC(=O)CCC(=O)O)nc1 [6-Aminonicotinamide-N^6 --succinic acid, 6-aminonicotinamide-N^6-succinic acid] | 2000 | activity (inhibition of cell growth), in words (human lung fibroblasts; interpretation of Table A): essentially inactive |
| COC(=O)CCC(=O)Nc1ccc(C(N)=O)cn1 [6-Aminonicotinamide-N^6 --succinate methyl ester] | 20 |  |
| CCCCCCOC(=O)CCC(=O)Nc1ccc(C(N)=O)cn1 [6-Aminonicotinamide-N^6 --succinate hexyl ester] | 20 |  |
| NC(=O)c1ccc(NC(=O)CCC(=O)N2CCOCC2)nc1 [6-Aminonicotinamide-N^6-succinylmorpholidate] |  | conversion by cellular enzymes to active 6-aminonicotinamide (cellular enzymes): readily converted; efficiency of conversion compared with the other alkyl or ester analogues (cellular enzymes): more efficient |
